Results on 58 compounds are retold here after the METLIN SMRT retention time set (Domingo-Almenara et al. 2019).

SMILES strings stand for the structures.

This data set can be described thus: gradient 5% acetonitrile 3 min, to 50% in 2 min, to 85% in 15 min, held 3 min, 100 µL/min. The following applies: column: Zorbax Extend-C18 2.1 x 50 mm; eluents: water / acetonitrile, 0.1% formic acid. The method, boiled down: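 The mobile phases were water and acetonitrile, each with 0.1% formic acid, pumped at 100 μL/min through a Zorbax Extend-C18 column (2.1 × 50 mm, 1.8 μm). Pure standards were injected as mixtures of ~100 molecules and detected by a quadrupole time-of-flight mass spectrometer in positive and negative ionization mode. Retention time came from computationally picked adduct peaks, each inspected by hand.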
Turning to `COc1ccc(NC(=O)N2CCc3nc(-c4ccccc4)ncc3C2)cc1OC`, the RP-LC retention time amounted to 804 s.
`O=C(Nc1ccccc1)C1CCCN(c2ncnc3c2oc2ccccc23)C1` (stereo not drawn) registered an RP-LC retention time of 798 s.
On to `CC1=C(c2ccc(C)c(C)c2)S(=O)(=O)N=C1N1CCC(NC(=O)CCC(C)C)CC1`, for which the RP-LC retention time stood at 962 s.
`CC(=O)N1CCc2cc(N3CC(C(=O)NCC(C)C)CC3=O)ccc21` (stereo not drawn) showed an RP-LC retention time of 643 s.
Under `O=C(c1c(OCC2CC2)cc(=O)n2c1CCCCC2)N1CCOCC1` stands 645 s.
For `Cc1sc(NC(=O)c2cccs2)nc1-c1ccc2c(c1)NC(=O)CO2`, the RP-LC retention time turned out to be 842 s.
The same measure for `CCOC(=O)C1=C(C)NC(=O)NC1c1cn(-c2ccccc2)nc1-c1ccc(OCC)cc1` (stereo not drawn): 946 s; for `CC(CC(=O)N1CCN(c2ccccc2)CC1)S(=O)(=O)c1ccc2c(c1)CCN2C(=O)C1CC1` (stereo not drawn): 866 s.
For the compound `CCc1ccc(S(=O)(=O)NCCc2csc(-c3cccnc3)n2)s1`, the RP-LC retention time is 734 s.
Compound `O=S(=O)(Cc1ccccc1)N1CCCCC1c1noc(COCC2CC2)n1` (stereo not drawn) had an RP-LC retention time of 1050 s.
The same measure for `CC(C)Cn1nc(CNC(=O)C2CCC2)c2ccccc21`: 872 s.
For `Cc1nn2c(S(=O)(=O)N3CCCCC3)c(C(C)C)nc2s1`, the RP-LC retention time came to 911 s.
The same measure for `CN(CCc1noc(COc2ccccc2F)n1)C(=O)c1cccs1`: 835 s.
`CCOC(=O)c1c(S(=O)(=O)N2CCC(C(=O)NCc3cccc(C)c3)CC2)c(C)n(CC)c1C` registered an RP-LC retention time of 975 s.
The compound `COc1ccc(C)cc1NC(=O)C(=O)NCCN1CCN(c2ccccc2F)CC1` displayed an RP-LC retention time of 614 s.
Under `Cc1noc2ncnc(N3CCCC(C(=O)N4CCN(c5ccc(Cl)cc5)CC4)C3)c12` (stereo not drawn) stands 931 s; under `COCCCNC(=O)C1CCN(c2nccnc2Sc2cccc(C)c2)CC1`, 886 s.
The same measure for `CCCNC(=O)CCc1nc2ccccc2n(CC(=O)Nc2ccc(OC)c(Cl)c2)c1=O`: 805 s; for `Cc1noc([C@@H]2CC(F)(F)CN2C(=O)c2cocn2)n1`: 667 s; for `Cc1ccc2oc(-c3noc(C(=O)NCc4ccc5c(c4)OCO5)n3)c(C)c2c1`: 1120 s.
The same measure for `CCOc1ccccc1CNC(=O)CN1CCN(Cc2ccc(F)cc2Cl)C1=O`: 920 s.
`COC(=O)C1=CN(C2CC2)c2cc(N3CCN(c4ccccn4)CC3)c(F)cc2S1(=O)=O` returned an RP-LC retention time of 637 s.
For the compound `O=C(NCc1ccc(F)cc1)N1CCCC1c1nc(-c2ccc(F)cc2F)no1` (stereo not drawn), the RP-LC retention time was found to be 897 s.
Under `Nc1ccc(C(=O)Nc2cccc(N)c2)cc1` stands 752 s; under `Cc1nc(C)c(C(=O)N2CCCCCCNC(=O)[C@@H]3CCC[C@@H]32)s1`, 680 s; under `O=C(Nc1c(-c2ccc(F)cc2)nc2ccccn12)c1ccc2ccccc2c1`, 752 s.
Under `Cc1ccc(-c2nccn3cc(C(=O)NC4CC4)nc23)cc1` stands 803 s.
As to `Cn1cc(-c2cc3n(n2)CCC(=O)N3CC(=O)N2CCC(N3CCCCC3)CC2)c2ccccc21`, the RP-LC retention time amounted to 623 s.
Under `O=C(Cc1ccccc1)N1CCC(Nc2cccn3ncnc23)CC1` stands 713 s; under `Cn1c(N2CCCC(C(=O)NCc3ccc(F)cc3)C2)cc(=O)n(C)c1=O` (stereo not drawn), 680 s; under `CC(=O)Nc1nonc1-c1nnc(SCC(=O)Nc2nc(-c3ccccc3)cs2)n1C`, 833 s.
Regarding `Cc1ccc(-c2ccc(N3CCCC(C(=O)NC4CCCC4)C3)nn2)cc1C` (stereo not drawn), the RP-LC retention time amounted to 738 s.
The same measure for `CN1C(=O)C2(CCN(C(=O)Cc3ccc(Cl)cc3)C2)c2ccccc21` (stereo not drawn): 872 s; for `CC[C@H](Nc1ncnc2nc[nH]c12)c1nc2cccc(F)c2c(=O)n1-c1ccccc1`: 714 s; for `CCc1cccc(NC(=O)CSc2cc(N3CCN(c4ccccc4OC)CC3)ncn2)c1`: 1090 s.
Under `COc1cccc(-c2cn3ccn(-c4ccc5c(c4)CCC5)c(=O)c3n2)c1` stands 914 s; under `COc1ccc(-c2ccc(S(=O)(=O)NCc3ccc(C(=O)O)cc3)cc2)cc1`, 801 s; under `O=C(Cc1nc(-c2cccnc2)n[nH]1)NCCc1ccccc1`, 588 s.
The same measure for `CC1(c2cccc3ccccc23)OC(=O)c2ccccc21` (stereo not drawn): 1030 s.
On to `CCn1c(=O)c(C)nc2cc(C(=O)NCCc3c[nH]c4ccc(Cl)cc34)ccc21`, for which the RP-LC retention time turned out to be 833 s.
Under `O=C(Cn1nc(S(=O)(=O)c2cccc(F)c2)ccc1=O)N1CCN(c2ccccc2F)CC1` stands 885 s; under `COc1cccc(CNC(=O)Cn2nc3c4cccc(C)c4ncn3c2=O)c1OC`, 630 s; under `Cc1nc(C(=O)Nc2ccc(Cl)cc2F)c(C)o1`, 1020 s.
The same measure for `O=C(Nc1cccc(Cl)c1F)N1CCCC1c1nncn1-c1ccccc1` (stereo not drawn): 745 s; for `O=C(NCCC1=CCCCC1)C1CCCN(c2nc3ccccc3n(Cc3ccccc3)c2=O)C1` (stereo not drawn): 1310 s.
The same measure for `Cc1cccc(N2CCN(C(=O)c3ccc(-c4csc(C5CC5)n4)cc3)CC2C)c1` (stereo not drawn): 1120 s.
`CC(C)S(=O)(=O)c1cccc(C(=O)Nc2nc(-c3cc([N+](=O)[O-])cs3)cs2)c1`: the RP-LC retention time stood at 914 s.
With `O=C(COc1ccccc1[N+](=O)[O-])Nc1nc2c(s1)CCc1ccccc1-2`, the RP-LC retention time came out at 1030 s.
The same measure for `CCSc1nnc(NC(=O)CSc2nnnn2-c2ccccc2CC)s1`: 887 s; for `CC1=C(c2ccc(C)cc2)S(=O)(=O)N=C1N1CCCN(C(=O)c2cccc(C#N)c2)CC1`: 885 s.
As for `COc1cccc(-c2noc(C3CCCN3C(=O)Nc3ccccc3C)n2)c1` (stereo not drawn), the RP-LC retention time came out at 877 s.
The same measure for `O=C(NC1CCN(c2cc(-c3ccccc3)[nH]n2)C1)c1ccc(F)c(Cl)c1` (stereo not drawn): 767 s; for `CCn1cnc(S(=O)(=O)N2CCC(C(=O)Nc3cccc4c3CCCC4)CC2)c1`: 792 s.
`CC1(C(=O)NCc2ccc(F)cc2)Cn2cnc(C(=O)NCc3ccccc3F)c2C(=O)N1C1CC1` (stereo not drawn) gave an RP-LC retention time of 751 s.
Under `COc1ccc(-c2ccnn2-c2ccc(SCC(=O)Nc3cc(C)ccc3C)nn2)cc1` stands 1140 s; under `Cc1ccc(-c2noc(C3CCCN3S(=O)(=O)c3ccc(Br)cc3)n2)cc1` (stereo not drawn), 1230 s.
Under `COc1ccc(Cl)cc1S(=O)(=O)N1CCc2nn(C)c(=O)n2CC1` stands 712 s.
Under `O=C(C1CCN(S(=O)(=O)c2ccc(-c3noc(C4CC4)n3)cc2)CC1)N1CCc2ccccc21` stands 800 s.
